Results reported in patent US10194659B2, “Active compound combinations” (BAYER CROPSCIENCE AKTIENGESELLSCHAFT, priority 2014, dated 2019).

Experiments:
[1] = system: Blumeria graminis f.sp. hordei; assay: In vivo preventive Blumeria test (barley); details: 100 ppm a.i., evaluated 7 days after inoculation
Procedure: (§1) To produce a suitable preparation of active compound, 1 part by weight of active compound or active compound combination is mixed with the stated amounts of solvent and emulsifier, and the concentrate is diluted with water to the desired concentration. To test for preventive activity, young plants are sprayed with the preparation of active compound or active compound combination at the stated rate of application. After the spray coating has been dried, the plants are dusted with spores of Blumeria graminis f.sp. hordei. The plants are placed in the greenhouse at a temperature of approximately 18° C. and a relative atmospheric humidity of approximately 80% to promote the development of mildew pustules.
The test is evaluated 7 days after the inoculation. 0% means an efficacy which corresponds to that of the untreated control, while an efficacy of 100% means that no disease is observed.

Leptosphaeria nodorum = assay: In vivo preventive Leptosphaeria nodorum test (wheat); details: evaluated 8 days after inoculation
Procedure: as §1, with “sprayed” for “dusted”, “a spore suspension” for “spores”, “Leptosphaeria nodorum. The plants remain for 48 hours in an incubation cabinet at approximately 20° C. and a relative atmospheric humidity of approximately 100%.” for “Blumeria graminis f.sp. hordei.”, “25°” for “18°”, “80%.” for “80% to promote the development of mildew pustules.”
(§2) The test is evaluated 8 days after the inoculation. 0% means an efficacy which corresponds to that of the untreated control, while an efficacy of 100% means that no disease is observed.

Pyrenophora teres = assay: In vivo preventive Pyrenophora teres test (barley); details: evaluated 8 days after inoculation
Procedure: as §1, with “sprayed” for “dusted”, “a spore suspension” for “spores”, “Pyrenophora teres. The plants remain for 48 hours in an incubation cabinet at approximately 20° C. and a relative atmospheric humidity of approximately 100%.” for “Blumeria graminis f.sp. hordei.”, “20°” for “18°”, “80%.” for “80% to promote the development of mildew pustules.”
as §2

Puccinia triticina = assay: In vivo preventive Puccinia triticina test (wheat); details: 12.5 ppm a.i., evaluated 8 days after inoculation
Procedure: as §1, with “sprayed” for “dusted”, “a spore suspension” for “spores”, “Puccinia triticina. The plants remain for 48 hours in an incubation cabinet at approximately 20° C. and a relative atmospheric humidity of approximately 100%.” for “Blumeria graminis f.sp. hordei.”, “20°” for “18°”, “80%.” for “80% to promote the development of mildew pustules.”
as §2

Septoria tritici = assay: In vivo preventive Septoria tritici test (wheat); details: 25 ppm a.i., evaluated 21 days after inoculation
Procedure: as §1, with “sprayed” for “dusted”, “a spore suspension” for “spores”, “Septoria tritici. The plants remain for 48 hours in an incubation cabinet at approximately 20° C. and a relative atmospheric humidity of approximately 100% and afterwards for 60 hours at approximately 15° C. in a translucent incubation cabinet at a relative atmospheric humidity of approximately 100%.” for “Blumeria graminis f.sp. hordei.”, “15°” for “18°”, “80%.” for “80% to promote the development of mildew pustules.”
The test is evaluated 21 days after the inoculation. 0% means an efficacy which corresponds to that of the untreated control, while an efficacy of 100% means that no disease is observed.

## fluopyram [1.006, reference compound]
[1]
  Efficacy in % found: 71%
Leptosphaeria nodorum; 12.5 ppm a.i.
  Efficacy in % found: 14%
Leptosphaeria nodorum; 25 ppm a.i.
  Efficacy in % found: 14%
Pyrenophora teres; 12.5 ppm a.i.
  Efficacy in % found: 33%
Pyrenophora teres; 50 ppm a.i.
  Efficacy in % found: 75%
Puccinia triticina
  Efficacy in % found: 0%
Septoria tritici
  Efficacy in % found: 17%
